Source: patent US20150125889A1, “IN VITRO DETECTION OF MICROORGANISMS WITH AZOREDUCTASE ACTIVITY” (BIOMÉRIEUX, priority 2012, published 2015)

Tests used:
Assay in all cases: Reduction of azo substrates over 24 hours at 35° C., microtitration plate (Example 1)
Format in all cases: cell-based
[1] = test system: Candida albicans; set-up: key to RED (substrate reduced or not): RED indicates whether the substrate is reduced (Y) or not (N); RED indicates whether the substrate is reduced (Y) or not (N); key to Co (growth, absorbance at 660 nm) / Decol (substrate decolourized, decrease in absorbance) / Fluo (fluorescence multiplied by 2 relative to substrate-free control): The symbol “+” means good growth/decolourization/significant increase in fluorescence; The symbol “+/−” means difficult growth; The symbol “−” means that there is no growth/decolourization/significant increase in fluorescence; settings: substrate 35 mg/l
Summary of the method: (§1)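 Each strain grown in trypcase soya broth containing 35 mg/l azo substrate from a 0.5 McFarland inoculum, read at 35 °C over 24 h. Growth followed by A660; reduction scored as decolourization (falling absorbance) and/or fluorescence doubling versus substrate-free control. Results given as qualitative +, +/−, − and reduced Y/N.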

[2] = test system: Cronobacter muytjensii; set-up: key to RED (substrate reduced or not): RED indicates whether the substrate is reduced (Y) or not (N); RED indicates whether the substrate is reduced (Y) or not (N); key to Co (growth, absorbance at 660 nm) / Decol (substrate decolourized, decrease in absorbance) / Fluo (fluorescence multiplied by 2 relative to substrate-free control): The symbol “+” means good growth/decolourization/significant increase in fluorescence; The symbol “+/−” means difficult growth; The symbol “−” means that there is no growth/decolourization/significant increase in fluorescence; settings: E. muytjensii, substrate 35 mg/l
Summary of the method: as §1

[3] = test system: Escherichia coli; set-up: key to RED (substrate reduced or not): RED indicates whether the substrate is reduced (Y) or not (N); RED indicates whether the substrate is reduced (Y) or not (N); key to Co (growth, absorbance at 660 nm) / Decol (substrate decolourized, decrease in absorbance) / Fluo (fluorescence multiplied by 2 relative to substrate-free control): The symbol “+” means good growth/decolourization/significant increase in fluorescence; The symbol “+/−” means difficult growth; The symbol “−” means that there is no growth/decolourization/significant increase in fluorescence; settings: E. coli, substrate 35 mg/l
Summary of the method: as §1

[4] = test system: Geotrichum candidum; set-up: key to RED (substrate reduced or not): RED indicates whether the substrate is reduced (Y) or not (N); RED indicates whether the substrate is reduced (Y) or not (N); key to Co (growth, absorbance at 660 nm) / Decol (substrate decolourized, decrease in absorbance) / Fluo (fluorescence multiplied by 2 relative to substrate-free control): The symbol “+” means good growth/decolourization/significant increase in fluorescence; The symbol “+/−” means difficult growth; The symbol “−” means that there is no growth/decolourization/significant increase in fluorescence; settings: G. candidum, substrate 35 mg/l
Summary of the method: as §1

[5] = test system: Kocuria rosea; set-up: key to RED (substrate reduced or not): RED indicates whether the substrate is reduced (Y) or not (N); RED indicates whether the substrate is reduced (Y) or not (N); key to Co (growth, absorbance at 660 nm) / Decol (substrate decolourized, decrease in absorbance) / Fluo (fluorescence multiplied by 2 relative to substrate-free control): The symbol “+” means good growth/decolourization/significant increase in fluorescence; The symbol “+/−” means difficult growth; The symbol “−” means that there is no growth/decolourization/significant increase in fluorescence; settings: K. rosea, substrate 35 mg/l
Summary of the method: as §1

[6] = test system: Pseudomonas aeruginosa; set-up: key to RED (substrate reduced or not): RED indicates whether the substrate is reduced (Y) or not (N); RED indicates whether the substrate is reduced (Y) or not (N); key to Co (growth, absorbance at 660 nm) / Decol (substrate decolourized, decrease in absorbance) / Fluo (fluorescence multiplied by 2 relative to substrate-free control): The symbol “+” means good growth/decolourization/significant increase in fluorescence; The symbol “+/−” means difficult growth; The symbol “−” means that there is no growth/decolourization/significant increase in fluorescence; settings: P. aeruginosa, substrate 35 mg/l
Summary of the method: as §1

[7] = test system: Staphylococcus aureus; set-up: key to RED (substrate reduced or not): RED indicates whether the substrate is reduced (Y) or not (N); RED indicates whether the substrate is reduced (Y) or not (N); key to Co (growth, absorbance at 660 nm) / Decol (substrate decolourized, decrease in absorbance) / Fluo (fluorescence multiplied by 2 relative to substrate-free control): The symbol “+” means good growth/decolourization/significant increase in fluorescence; The symbol “+/−” means difficult growth; The symbol “−” means that there is no growth/decolourization/significant increase in fluorescence; settings: S. aureus, substrate 35 mg/l
Summary of the method: as §1

[8] = test system: Staphylococcus epidermidis; set-up: key to RED (substrate reduced or not): RED indicates whether the substrate is reduced (Y) or not (N); RED indicates whether the substrate is reduced (Y) or not (N); key to Co (growth, absorbance at 660 nm) / Decol (substrate decolourized, decrease in absorbance) / Fluo (fluorescence multiplied by 2 relative to substrate-free control): The symbol “+” means good growth/decolourization/significant increase in fluorescence; The symbol “+/−” means difficult growth; The symbol “−” means that there is no growth/decolourization/significant increase in fluorescence; settings: S. epidermidis, substrate 35 mg/l
Summary of the method: as §1

[9] = test system: Acinetobacter baumanii; set-up: key to RED (substrate reduced or not): RED indicates whether the substrate is reduced (Y) or not (N); RED indicates whether the substrate is reduced (Y) or not (N); key to Decol (substrate decolourized, decrease in absorbance) / Fluo (fluorescence multiplied by 2 relative to substrate-free control) / Co (growth, absorbance at 660 nm): The symbol “+” means good growth/decolourization/significant increase in fluorescence; The symbol “+/−” means difficult growth; The symbol “−” means that there is no growth/decolourization/significant increase in fluorescence; settings: A. baumannii, substrate 35 mg/l
Summary of the method: as §1

[10] = test system: Enterococcus faecalis; set-up: key to RED (substrate reduced or not): RED indicates whether the substrate is reduced (Y) or not (N); RED indicates whether the substrate is reduced (Y) or not (N); key to Decol (substrate decolourized, decrease in absorbance) / Fluo (fluorescence multiplied by 2 relative to substrate-free control) / Co (growth, absorbance at 660 nm): The symbol “+” means good growth/decolourization/significant increase in fluorescence; The symbol “+/−” means difficult growth; The symbol “−” means that there is no growth/decolourization/significant increase in fluorescence; settings: E. faecalis, substrate 35 mg/l
Summary of the method: as §1

Compound	Co (growth, absorbance at 660 nm) [1]	Decol (substrate decolourized, decrease in absorbance) [1]	Fluo (fluorescence multiplied by 2 relative to substrate-free control) [1]	RED (substrate reduced or not) [1]	Co (growth, absorbance at 660 nm) [2]	Decol (substrate decolourized, decrease in absorbance) [2]	Fluo (fluorescence multiplied by 2 relative to substrate-free control) [2]	RED (substrate reduced or not) [2]	Co (growth, absorbance at 660 nm) [3]	Decol (substrate decolourized, decrease in absorbance) [3]	Fluo (fluorescence multiplied by 2 relative to substrate-free control) [3]	RED (substrate reduced or not) [3]	Co (growth, absorbance at 660 nm) [4]	Decol (substrate decolourized, decrease in absorbance) [4]	Fluo (fluorescence multiplied by 2 relative to substrate-free control) [4]	RED (substrate reduced or not) [4]	Co (growth, absorbance at 660 nm) [5]	Decol (substrate decolourized, decrease in absorbance) [5]	Fluo (fluorescence multiplied by 2 relative to substrate-free control) [5]	Co (growth, absorbance at 660 nm) [6]	further results
O=S(=O)([O-])c1ccc(/N=N/c2ccc(O)c3ccccc23)cc1.[Na+] [Orange I]	+	−	−	N	+	+	−	Y	+	+	−	Y	+/−	−	−	N	−	−	−	+	Decol (substrate decolourized, decrease in absorbance) [6]: −; Fluo (fluorescence multiplied by 2 relative to substrate-free control) [6]: −; RED (substrate reduced or not) [6]: N; Co (growth, absorbance at 660 nm) [7]: +; Decol (substrate decolourized, decrease in absorbance) [7]: +; Fluo (fluorescence multiplied by 2 relative to substrate-free control) [7]: −; RED (substrate reduced or not) [7]: Y; Co (growth, absorbance at 660 nm) [8]: +; Decol (substrate decolourized, decrease in absorbance) [8]: +; Fluo (fluorescence multiplied by 2 relative to substrate-free control) [8]: −; RED (substrate reduced or not) [8]: Y; Co (growth, absorbance at 660 nm) [9]: +; Decol (substrate decolourized, decrease in absorbance) [9]: +/−; Fluo (fluorescence multiplied by 2 relative to substrate-free control) [9]: −; RED (substrate reduced or not) [9]: Y; Co (growth, absorbance at 660 nm) [10]: +; Decol (substrate decolourized, decrease in absorbance) [10]: +; Fluo (fluorescence multiplied by 2 relative to substrate-free control) [10]: −; RED (substrate reduced or not) [10]: Y
O=S(=O)([O-])c1ccc2c(N=Nc3ccccc3)c(O)c(S(=O)(=O)[O-])cc2c1.[Na+].[Na+] [Ponceau 2G]	+	−	−	N	+	−	−	N	+	−	−	N	+/−	−	−	N	−	−	−	+	Decol (substrate decolourized, decrease in absorbance) [6]: −; Fluo (fluorescence multiplied by 2 relative to substrate-free control) [6]: −; RED (substrate reduced or not) [6]: N; Co (growth, absorbance at 660 nm) [7]: +; Decol (substrate decolourized, decrease in absorbance) [7]: −; Fluo (fluorescence multiplied by 2 relative to substrate-free control) [7]: −; RED (substrate reduced or not) [7]: N; Co (growth, absorbance at 660 nm) [8]: +; Decol (substrate decolourized, decrease in absorbance) [8]: −; Fluo (fluorescence multiplied by 2 relative to substrate-free control) [8]: −; RED (substrate reduced or not) [8]: N; Co (growth, absorbance at 660 nm) [9]: +; Decol (substrate decolourized, decrease in absorbance) [9]: −; Fluo (fluorescence multiplied by 2 relative to substrate-free control) [9]: −; RED (substrate reduced or not) [9]: N; Co (growth, absorbance at 660 nm) [10]: +; Decol (substrate decolourized, decrease in absorbance) [10]: +; Fluo (fluorescence multiplied by 2 relative to substrate-free control) [10]: −; RED (substrate reduced or not) [10]: Y
O=S(=O)([O-])c1ccc(N=Nc2c(O)ccc3cc(S(=O)(=O)[O-])ccc23)cc1.[Na+].[Na+] [Sunset Yellow]	+	+	+	Y	+	−	−	N	+	−	−	N	+	−	−	N	−	−	−	+	Decol (substrate decolourized, decrease in absorbance) [6]: −; Fluo (fluorescence multiplied by 2 relative to substrate-free control) [6]: −; RED (substrate reduced or not) [6]: N; Co (growth, absorbance at 660 nm) [7]: +; Decol (substrate decolourized, decrease in absorbance) [7]: −; Fluo (fluorescence multiplied by 2 relative to substrate-free control) [7]: −; RED (substrate reduced or not) [7]: N; Co (growth, absorbance at 660 nm) [8]: +; Decol (substrate decolourized, decrease in absorbance) [8]: −; Fluo (fluorescence multiplied by 2 relative to substrate-free control) [8]: −; RED (substrate reduced or not) [8]: N; Co (growth, absorbance at 660 nm) [9]: +; Decol (substrate decolourized, decrease in absorbance) [9]: −; Fluo (fluorescence multiplied by 2 relative to substrate-free control) [9]: −; RED (substrate reduced or not) [9]: N; Co (growth, absorbance at 660 nm) [10]: +; Decol (substrate decolourized, decrease in absorbance) [10]: +; Fluo (fluorescence multiplied by 2 relative to substrate-free control) [10]: +; RED (substrate reduced or not) [10]: Y
